From ChEMBL document CHEMBL1133954, “The discovery of novel, potent and selective PDE5 inhibitors” (Bioorg Med Chem Lett, 2001)

What was measured:
[1] = target: cGMP-specific 3',5'-cyclic phosphodiesterase (Homo sapiens, UniProt O76074); assay: Inhibition of PDE5 from human platelets
[2] = Relative inhibition of PDE4 from rat kidney and PDE5 from human platelets
[3] = Relative inhibition of PDE6 from bovine retina and PDE5 from human platelets
[4] = Relative inhibition of PDE2 from rat kidney and PDE5 from human platelets
[5] = Relative inhibition of PDE1 from bovine heart and PDE5 from human platelets

IC50 [1] [nM] | Ratio [2] | Ratio [3] | Ratio [4] | Ratio [5] | SMILES
– | 310 | 17 | 1200 | 130 | CCCOc1ccc(S(=O)(=O)N2CC[C@@H](N(C)C)C2)cc1-c1nc(O)c2c(Cl)nc3nn(Cc4ccc(OC)cc4)cc3c2n1
0.31 | – | – | – | – | CCCOc1ccc(S(=O)(=O)N2CC[C@@H](N(C)C)C2)cc1-c1nc2c(c(NCc3ccc(F)cc3)nc3n[nH]cc32)c(=O)[nH]1
13 | – | – | – | – | CCCOc1ccc(S(=O)(=O)N2CC[C@@H](N(C)C)C2)cc1-c1nc2c(c(Cl)nc3nn(Cc4ccc(OC)cc4)cc32)c(=O)[nH]1
– | 2500 | 15 | > 10000 | – | CCCOc1ccc(S(=O)(=O)N2CC[C@@H](N(C)C)C2)cc1-c1nc(O)c2c(NCc3ccc(F)cc3)nc3nn(Cc4ccc(OC)cc4)cc3c2n1
1.7 | – | – | – | – | CCCOc1ccc(S(=O)(=O)N2CC[C@@H](N(C)C)C2)cc1-c1nc2c(c(NCc3ccc(F)cc3)nc3nn(Cc4ccc(OC)cc4)cc32)c(=O)[nH]1

The next lines start with the molecule.

SMILES | IC50 [1] [nM] | Ratio [2] | Ratio [3] | Ratio [4] | Ratio [5]
CCCOc1ccc(S(=O)(=O)N2CC[C@@H](N(C)C)C2)cc1-c1nc2c(cnc3n[nH]cc32)c(=O)[nH]1 | 2.1 | – | – | – | –
CCCOc1ccc(S(=O)(=O)N2CC[C@@H](N(C)C)C2)cc1-c1nc(O)c2c(NCc3ccc(F)cc3)[nH]c3nncc-3c2n1 | – | > 100000 | 160 | – | –
CCCOc1ccc(S(=O)(=O)N2CC[C@@H](N(C)C)C2)cc1-c1nc(O)c2c[nH]c3nncc-3c2n1 | – | 3200 | 22 | 2000 | 400
CCCOc1ccc(S(=O)(=O)N2CC[C@@H](N(C)C)C2)cc1-c1nc(O)c2c(NCc3ccc(OC)c(Cl)c3)[nH]c3nncc-3c2n1 | – | – | 180 | > 10000 | –
